From patent publication US20110244569A1, “METHOD OF INDUCING PROLIFERATION AND/OR DIFFERENTIATION OF NEURAL PRECURSOR CELLS BY INTRODUCING PROLACTIN OR WNT3A TO ACTIVATE LATENT NEURAL PRECURSOR CELLS” (priority 2008, published 2011)
Structures can show the parent of a compound that is named as a salt.

Key:
[1] = tested on: primary hippocampal cells; experiment: Primary neurosphere culture, hippocampus; type: cell-based, mouse; details: for generation of very large neurospheres (>250 μm) passaged long-term / increase in number of hippocampal neurospheres generated / number of hippocampal neurospheres: 1 ng/mL Wnt3a or 2 ng/mL PRL; for number of hippocampal neurospheres: n=3; for neurosphere number, aged hippocampus: aged (18 month old) hippocampus, n=4
Protocol: The tissue was enzymatically digested with 0.1% trypsin-EDTA (Gibco/Invitrogen, Eugene, Oreg.) for 7 minutes at 37° C., followed by a wash with 0.014% w/v trypsin inhibitor (type I-S from soybean; Sigma-Aldrich Australia, Sydney, Australia) dissolved in Hepes-buffered minimum essential medium (HEM), which consisted of minimum essential medium (Gibco/Invitrogen) supplemented with 16 mM HEPES (Sigma-Aldrich Australia) and 100 units/ml penicillin/streptomycin (Gibco/Invitrogene). The tissue was centrifuged at 100 rcf for 7 minutes, following which the pellet was resuspended in 1 ml neurosphere growth medium, mechanically triturated until smooth, then filtered through a 40 μm cell sieve (Falcon/BD Biosciences Australia, North Ryde, Australia). The neurosphere growth medium consisted of mouse NeuroCult™ NSC Basal Medium plus mouse NeuroCult™ NSC Proliferation Supplements (StemCell Technologies, Vancouver, Canada) with 2% bovine serum albumin (Roche, Basel, Switzerland) and 2 μg/ml heparin (Sigma-Aldrich Australia). The following growth factors were also included: 20 ng/ml purified mouse receptor-grade EGF (BD Biosciences Australia) and 10 ng/ml recombinant bovine FGF-2 (Roche). After centrifugation at 100 rcf for 7 minutes, the cells were plated at a density of approximately one hippocampus, SVZ or cortex or four olfactory bulbs per 96-well plate (Falcon/BD Biosciences Australia) with 200 μl neurosphere medium per well.
The neurosphere growth medium already contained 4.18 mM KCl. […] This level of potassium is around five times that of the normal physiological concentration of potassium, ˜4 mM. Nicardipine (Sigma-Aldrich), when used, was added to a final concentration of 10 μM. BaCl was used as an alternative to KCl in some experiments at a concentration of 1 mM and GABA at 100 μM. Recombinant mouse Wnt3a (R&D Systems) and recombinant mouse prolactin (PRL; R&D Systems) were added instead of KCl in some experiments at concentrations of 1 ng/mL and 2 ng/mL respectively.
(§1) Primary hippocampal cells were incubated for 10 days, and SVZ, olfactory bulb or cortical cells for 7 days, in humidified 5% CO2 to permit neurosphere formation. The primary neurospheres were then counted and collected for passaging or differentiation. Results of the neurosphere counts were expressed as mean±standard error and statistical analysis was performed using a standard t-Test (two sample assuming equal variance).

[2] = tested on: SVZ cells; experiment: Primary neurosphere culture, SVZ; type: cell-based, mouse; details: for number of SVZ-derived neurospheres: 1 ng/mL Wnt3a or 2 ng/mL PRL, n=2
Protocol: Adult (6-8 week old) male C57/B16 mice were killed by cervical dislocation, their brains immediately removed and the hippocampus, SVZ, olfactory bulb or cortex dissected. The tissue was enzymatically digested with 0.1% trypsin-EDTA (Gibco/Invitrogen, Eugene, Oreg.) for 7 minutes at 37° C., followed by a wash with 0.014% w/v trypsin inhibitor (type I-S from soybean; Sigma-Aldrich Australia, Sydney, Australia) dissolved in Hepes-buffered minimum essential medium (HEM), which consisted of minimum essential medium (Gibco/Invitrogen) supplemented with 16 mM HEPES (Sigma-Aldrich Australia) and 100 units/ml penicillin/streptomycin (Gibco/Invitrogene). The tissue was centrifuged at 100 rcf for 7 minutes, following which the pellet was resuspended in 1 ml neurosphere growth medium, mechanically triturated until smooth, then filtered through a 40 μm cell sieve (Falcon/BD Biosciences Australia, North Ryde, Australia). The neurosphere growth medium consisted of mouse NeuroCult™ NSC Basal Medium plus mouse NeuroCult™ NSC Proliferation Supplements (StemCell Technologies, Vancouver, Canada) with 2% bovine serum albumin (Roche, Basel, Switzerland) and 2 μg/ml heparin (Sigma-Aldrich Australia). The following growth factors were also included: 20 ng/ml purified mouse receptor-grade EGF (BD Biosciences Australia) and 10 ng/ml recombinant bovine FGF-2 (Roche). After centrifugation at 100 rcf for 7 minutes, the cells were plated at a density of approximately one hippocampus, SVZ or cortex or four olfactory bulbs per 96-well plate (Falcon/BD Biosciences Australia) with 200 μl neurosphere medium per well.
The neurosphere growth medium already contained 4.18 mM KCl. […]
as §1

[3] = tested on: olfactory bulb cells; experiment: Primary neurosphere culture, olfactory bulb; type: cell-based, mouse; details: potassium-activated vs control
Protocol: (§2) Adult (6-8 week old) male C57/B16 mice were killed by cervical dislocation, their brains immediately removed and the hippocampus, SVZ, olfactory bulb or cortex dissected. The tissue was enzymatically digested with 0.1% trypsin-EDTA (Gibco/Invitrogen, Eugene, Oreg.) for 7 minutes at 37° C., followed by a wash with 0.014% w/v trypsin inhibitor (type I-S from soybean; Sigma-Aldrich Australia, Sydney, Australia) dissolved in Hepes-buffered minimum essential medium (HEM), which consisted of minimum essential medium (Gibco/Invitrogen) supplemented with 16 mM HEPES (Sigma-Aldrich Australia) and 100 units/ml penicillin/streptomycin (Gibco/Invitrogene). The tissue was centrifuged at 100 rcf for 7 minutes, following which the pellet was resuspended in 1 ml neurosphere growth medium, mechanically triturated until smooth, then filtered through a 40 μm cell sieve (Falcon/BD Biosciences Australia, North Ryde, Australia). […]
as §1

[4] = tested on: cortical cells; experiment: Primary neurosphere culture, cortex; type: cell-based, mouse; details: depolarization vs control
Protocol: as §2, §1

[5] = tested on: hippocampal neurospheres; experiment: Hippocampal neurosphere passaging; type: cell-based, mouse
Protocol: Primary neurospheres from the unstimulated hippocampus were also passaged as single spheres.
Hippocampal neurosphere cultures were initiated by removing 150 μl of the medium from wells containing single neurospheres, treating with 100 μl 0.1% trypsin-EDTA for 2 minutes at room temperature, followed by washing with 100 μl trypsin inhibitor in HEM. The neurospheres were mechanically triturated until dissociated and replated in well plates in 2 ml of complete medium. Neurospheres were passaged every 10 days by centrifuging the neurospheres, removing the medium and incubating in 1 ml of 0.1% trypsin-EDTA for 2 minutes at room temperature. After the addition of an equal volume of trypsin inhibitor, the neurospheres were centrifuged at 100 rcf for 5 minutes and the supernatant removed. Cells were mechanically triturated in 500 μl of complete medium and trypan blue staining was used to evaluate the number of cells, both viable and total number, on a hemocytometer. The passaged cells were then re-plated with complete medium at a density of 1×10^4 cells/cm^2 in tissue culture flasks (Nunc, Rochester, N.Y.) or tissue culture plates (Falcon/BD Biosciences) as appropriate.

[6] = tested on: primary hippocampal cells; experiment: Microarray analysis after KCl depolarization; type: cell-based, mouse; details: following depolarization, P<0.001
Protocol: Hippocampal tissue was dissected and dissociated as described above and incubated either in the presence or absence of 15 mM KCl for 24 hours. Cells were pelleted and total RNA was isolated using the RNeasy mini kit (Qiagen) and quantitated using the Bioanalyzer 2100 (Agilent). aRNA was prepared from 500 ng of RNA using the Message-Amp™-II Biotin Enhanced Kit (Ambion). A total of 15 μg biotinylated aRNA was fragmented and run on a GeneChip mouse Genome 430A 2.0 Array (Affymetrix) in accordance with the manufacturer's instructions.

[7] = tested on: latent precursor cell population; experiment: Neurosphere culture of FACS-sorted Emx1-GFP / GFAP-GFP cells; type: cell-based, mouse
Protocol: DCX-GFP, Emx1-GFP and GFAP-GFP mice are from the Mutant Mouse Regional Resource Center, The Gene Expression Nervous System Atlas BAC transgenic project (Gong et al., 2002).
Brains were collected and processed. GFP^+ve cells were separated by fluorescence-activated cell sorting (FACS) using a FACS Vantage cell sorter (BD Biosciences). A wild-type littermate control was used to determine background fluorescence levels. For primary neurosphere cultures the cells were plated at a density of 500 cells/well in 96-well plates (Falcon/BD Biosciences, San Jose, Calif.) with 0.2 ml complete medium per well. Complete medium consisted of mouse NeuroCult™ NSC Basal Medium plus mouse NeuroCult™ NSC Proliferation Supplements (StemCell Technologies,
Vancouver, Canada) with 2% bovine serum albumin (Roche, Basel, Switzerland) and 2 μg/ml heparin (Sigma-Aldrich). The following growth factors were also included: 20 ng/ml purified mouse receptor-grade epidermal growth factor (EGF; BD Biosciences Australia) and 10 ng/ml recombinant bovine basic fibroblast growth factor (FGF-2; Roche). Primary cells were incubated for 7 days in humidified 5% CO2 to permit neurosphere formation. The primary neurospheres were then counted and collected for passaging or differentiation. Results of the neurosphere counts were expressed as mean+ or −standard error and statistical analysis was performed using a standard t-Test (two sample assuming equal variance).

[8] = tested on: C57BL/6 male mice; experiment: Pilocarpine-induced seizures; type: in vivo, mouse; details: 350 mg/kg intraperitoneal
Protocol: Seizures were induced in 6-8 week old C57BL/6 male mice by the administration of pilocarpine, a muscarinic cholinergic agonist. Thirty minutes prior to pilocarpine administration, the mice were injected with 2.5 mg/kg of the cholinergic antagonist scopolamine methyl nitrate (Sigma-Aldrich) to reduce peripheral cholinergic effects. They then received intraperitoneal injections of 350 mg/kg pilocarpine hydrochloride (Sigma-Aldrich). […] Seizures were stopped 2 hours after status epilepticus onset, with an intraperitoneal injection of 5 mg/kg diazepam ([…], Parnell Laboratories Sydney, Australia).

[9] = tested on: SVZ-derived neurospheres; details: cited from earlier work
[10] = tested on: adult female mice; details: infusion, cited from earlier work
[11] = 10 nM and 30 nM PRL in presence of EGF

[Ba+2].[Cl-].[Cl-] [BaCl2, barium chloride]
increase in numbers of neurospheres ([1]; 1 mM BaCl2): over 2 fold

[Cl-].[K+] [KCl, potassium chloride]
increase in number of neurospheres generated ([1]; 20 mM KCl vs control (4 mM) potassium or sodium osmotic control, adult mouse): over 3 fold
increase in number of neurospheres, stimulated vs control ([1]; 18 month old hippocampus, depolarizing conditions): over 12 fold
effect on number of neurospheres generated ([1]; KCl as low as 10 mM and as high as 30 mM): significantly increase the number of neurospheres generated
optimal depolarizing level ([1]; KCl dose response assay): 15 mM
further increase of 33 week HD hippocampal precursors ([1]; R6/1 Huntington's disease mice, 33 weeks, potassium depolarization in vitro): could not be further increased
further stimulation of precursors from mice that underwent SE ([1]; depolarizing levels of potassium added in vitro after status epilepticus): no further stimulatory effect
decrease in neurosphere number ([2]; potassium-induced depolarization, adult SVZ): approx 40%
increase in number of olfactory bulb neurospheres [3]: over 3 fold
size of activated olfactory-bulb neurospheres [3]: significant increase in the size
increase in cortex neurosphere number [4]: over 3 fold
diameter of stimulated neurospheres capable of long term passage ([5]; all twenty three): > 110 μm
large primary spheres that could be expanded in culture for up to 10 passages ([5]; potassium stimulated, standard conditions 0/113): 23 out of 64
up-regulation of PRL [6]: 6.4 fold
up-regulation of Wnt3a [6]: 14.4 fold
SFU ([7]; Emx1+ve cells + KCL): 1/37
SFU ([7]; Emx1-ve cells + KCL): 1/10896
SFU ([7]; GFAP+ve cells + KCL): 1/127
SFU ([7]; GFAP-ve cells + KCL): 1/2220

CC[C@@H]1C(=O)OC[C@@H]1Cc1cncn1C [pilocarpine, pilocarpine hydrochloride]
mice in which seizures were observed [8]: 70%
seizing mice that entered status epilepticus [8]: 35%
time to status epilepticus after injection [8]: 78 ± 43 min

Wnt3a
generation of very large neurospheres (>250 μm) passaged long-term [1]: generation of a number of the very large neurospheres
increase in number of hippocampal neurospheres generated [1]: 2 fold
number of hippocampal neurospheres [1]: 204±66.1 % of control
neurosphere number, aged hippocampus [1]: 580±230 % of control
number of SVZ-derived neurospheres [2]: 98.5±4.5 % of control

B1: PRL: recombinant mouse prolactin (PRL; R&D Systems) (protein, UniProt P06879 30-226, looked up)
Prolactin: LPICSAGDCQTSLRELFDRVVILSHYIHTLYTDMFIEFDKQYVQDREFMVKVINDCPTSSLATPEDKEQALKVPPEVLLNLILSLVQSSSDPLFQLITGVGGIQEAPEYILSRAKEIEEQNKQLLEGVEKIISQAYPEAKGNGIYFVWSQLPSLQGVDEESKILSLRNTIRCLRRDSHKVDNFLKVLRCQIAHQNNC
generation of very large neurospheres (>250 μm) passaged long-term [1]: generation of a number of the very large neurospheres
increase in number of hippocampal neurospheres generated [1]: 2 fold
number of hippocampal neurospheres [1]: 217±13 % of control
neurosphere number, aged hippocampus [1]: 254±23 % of control
number of SVZ-derived neurospheres [2]: 100±9 % of control
effect on number of SVZ-derived neurospheres ([9]; 1 nM PRL): no effect
increase in number of neurons per neurosphere [9, 11]: two-fold
increase in numbers of SVZ-derived neurospheres [9, 11]: up to 35%
number of neurospheres in vitro, prolactin alone ([9]; without EGF, US 2003/0054998): did not significantly increase
number of new olfactory interneurons ([10]; after 4 weeks): doubled
BrdU-labeled cells in the forebrain SVZ ([10]; US 2003/0054998): increased
number of proliferating cells in hippocampal dentate gyrus [10]: no effect
